How the values were obtained:
IDH1 R132H = IDH1 R132H (Homo sapiens, UniProt O75874, R132H); assay: Assay for IDH1 R132H inhibitors (NADPH/aKG, resazurin detection); assay type: biochemical; conditions: enzyme assay of Example 12; read-out: IDH1R132H IC50
Summary of the method: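 Read-out is resorufin fluorescence (Ex544/Em590) 5 min after adding a 30 μM resazurin detection mix. Before that, mutant enzyme (0.2 μg/ml in its mix) ran 50 min at room temperature with compound, 8 uM NADPH and 2 mM aKG (mix levels) in Tris pH 7.5 with NaCl, MgCl2, BSA.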

HT1080 cells = assay: Cellular assay for IDH1m inhibitors: inhibition of 2-HG production (LC-MS, 48 hours) in HT1080 cells; assay type: cell-based; conditions: Homo sapiens, HT-1080; inhibition of 2-HG production, HT1080 cells; read-out: HT1080 IC50
Description: Cells (e.g., HT1080 or U87MG) and are grown in T125 flasks in DMEM containing 10% FBS, 1× penicillin/streptomycin and 500 ug/mL G418. They are harvested by trypsin and seeded into 96 well white bottom plates at a density of 5000 cell/well in 100 ul/well in DMEM with 10% FBS. No cells are plates in columns 1 and 12. Cells are incubated overnight at 37° C. in 5% CO2. The next day compounds are made up at 2× concentration and 100 ul are added to each cell well. The final concentration of DMSO is 0.2% and the DMSO control wells are plated in row G. The plates are then placed in the incubator for 48 hours. At 48 hours, 100 μl of media is removed from each well and analyzed by LC-MS for 2-HG concentrations. The cell plate is placed back in the incubator for another 24 hours. At 72 hours post compound addition, 10 mL/plate of Promega Cell Titer Glo reagent is thawed and mixed. The cell plate is removed from the incubator and allowed to equilibrate to room temperature. Then 100 ul of reagent is added to each well of media. The cell plate is then placed on an orbital shaker for 10 minutes and then allowed to sit at room temperature for 20 minutes. The plate is then read for luminescence with an integration time of 500 ms.
The IC50 for inhibition of 2-HG production (concentration of test compound to reduce 2HG production by 50% compared to control) in these two cell lines for various compounds of formula I is set forth in Table 4 above.

Chain of IDH1 R132H (O75874 whole entry R132H): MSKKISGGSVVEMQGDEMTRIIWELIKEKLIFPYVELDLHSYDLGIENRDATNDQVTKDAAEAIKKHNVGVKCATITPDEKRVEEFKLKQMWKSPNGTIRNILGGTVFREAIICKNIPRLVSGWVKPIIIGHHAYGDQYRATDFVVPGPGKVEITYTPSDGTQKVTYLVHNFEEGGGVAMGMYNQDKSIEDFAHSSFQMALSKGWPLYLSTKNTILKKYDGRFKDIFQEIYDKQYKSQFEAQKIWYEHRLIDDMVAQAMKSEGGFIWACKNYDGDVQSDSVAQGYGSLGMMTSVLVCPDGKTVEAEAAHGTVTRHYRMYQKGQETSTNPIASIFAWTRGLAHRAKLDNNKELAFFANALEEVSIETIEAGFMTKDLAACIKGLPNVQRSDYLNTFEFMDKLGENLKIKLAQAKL

| Structure (SMILES) | IC50 (IDH1 R132H) [nM] | IC50 (HT1080 cells) [nM] |
| --- | --- | --- |
| N#Cc1cc(-c2cccc3c[n+]([O-])ccc23)c(C2CC2)nc1N1CCN(C(=O)C2CC2)[C@H](C2CC2)C1 [Compound 439, (R)-5-(5-cyano-6-(4-(cyclopropanecarbonyl)-3-cyclopropylpiperazin-1-yl)-2-cyclopropylpyridin-3-yl)isoquinoline 2-oxide] | < 500 | < 500 |
| COCCC(=O)N1CCN(c2nc(C3CC3)c(-c3ccc4nccnc4c3)cc2C#N)C[C@H]1C [Compound 445, (R)-6-cyclopropyl-2-(4-(3-methoxypropanoyl)-3-methylpiperazin-1-yl)-5-(quinoxalin-6-yl)nicotinonitrile] | < 500 | 1000 to 10000 |
| N#Cc1cc(-c2cccc3c(C#N)nccc23)c(C2CC2)nc1N1CCN(C(=O)C2CC2)[C@H](C2CC2)C1 [Compound 511, (R)-5-(5-cyano-6-(4-(cyclopropanecarbonyl)-3-cyclopropylpiperazin-1-yl)-2-cyclopropylpyridin-3-yl)isoquinoline-1-carbonitrile] | < 500 | 500 to 1000 |
| CCO[C@H]1C[C@@H]1C(=O)N1CCN(c2nc(C3CC3)c(-c3cccc4cnccc34)cc2C#N)C[C@H]1C1CC1 [Compound 514, 6-cyclopropyl-2-((R)-3-cyclopropyl-4 ((1S,2S)-2-ethoxycyclopropanecarbonyl)piperazin-1-yl)-5-(isoquinolin-5-yl)nicotinonitrile] | < 500 | < 500 |
| C=Cc1cncc(-c2cc(C#N)c(N3CCN(C(=O)C4CC4)[C@H](C4CC4)C3)nc2C2CC2)n1 [Compound 515, (R)-2-(4-(cyclopropanecarbonyl)-3-cyclopropylpiperazin-1-yl)-6-cyclopropyl-5-(6-vinylpyrazin-2-yl)nicotinonitrile] | 500 to 1000 | 1000 to 10000 |
| CC(=O)N1CCN(c2nc(C3CC3)c(-c3cccc4cnccc34)cc2C#N)C[C@H]1C [Compound 516, (R)-2-(4-acetyl-3-methylpiperazin-1-yl)-6-cyclopropyl-5-(isoquinolin-5-yl)nicotinonitrile] | < 500 | 500 to 1000 |
| CCO[C@@H]1C[C@@H]1C(=O)N1CCN(c2nc(C3CC3)c(-c3cccc4cnccc34)cc2C#N)C[C@H]1C [Compound 517, 6-cyclopropyl-2-((R)-4-((1S,2R)-2-ethoxycyclopropanecarbonyl)-3-methylpiperazin-1-yl)-5-(isoquinolin-5-yl)nicotinonitrile] | < 500 | 500 to 1000 |
| C=Cc1nccc(-c2cc(C#N)c(N3CCN(C(=O)C4CC4)[C@H](C4CC4)C3)nc2C2CC2)c1F [Compound 520, (R)-6-(4-(cyclopropanecarbonyl)-3-cyclopropylpiperazin-1-yl)-2-cyclopropyl-3′-fluoro-2′-vinyl-3,4′-bipyridine-5-carbonitrile] | 500 to 1000 | < 500 |
| C[C@@H]1CN(c2nc(C3CC3)c(-c3ccnc(C#N)c3)cc2C#N)CCN1C(=O)C1CC1 [Compound 522, (R)-6-(4-(cyclopropanecarbonyl)-3-methylpiperazin-1-yl)-2-cyclopropyl-3,4′-bipyridine-2′,5-dicarbonitrile] | 500 to 1000 | 1000 to 10000 |
| CCS(=O)(=O)N1CCN(c2cc(C#N)c(N3CCN(C(=O)C4CC4)[C@H](C4CC4)C3)nc2C2CC2)CC1 [Compound 529, (R)-2-(4-(cyclopropanecarbonyl)-3-cyclopropylpiperazin-1-yl)-6-cyclopropyl-5-(4-(ethylsulfonyl)piperazin-1-yl)nicotinonitrile] | < 500 | 500 to 1000 |
| C=Cc1ncc(Cl)c(-c2cc(C#N)c(N3CCN(C(=O)C4CC4)[C@H](C4CC4)C3)nc2C2CC2)n1 [Compound 533, (R)-5-(5-chloro-2-vinylpyrimidin-4-yl)-2-(4-(cyclopropanecarbonyl)-3-cyclopropylpiperazin-1-yl)-6-cyclopropylnicotinonitrile] | 500 to 1000 | 1000 to 10000 |
| N#Cc1ccc2c(-c3cc(C#N)c(N4CCN(C(=O)CC(F)(F)F)[C@H](C5CC5)C4)nc3C3CC3)cccc2n1 [Compound 535, (R)-5-(5-cyano-2-cyclopropyl-6-(3-cyclopropyl-4-(3,3,3-trifluoropropanoyl)piperazin-1-yl)pyridin-3-yl)quinoline-2-carbonitrile] | < 500 | < 500 |
| Cn1cc(-c2cc(C#N)c(N3CCN(C(=O)CC(F)(F)F)[C@H](C4CC4)C3)nc2C2CC2)c2ccccc2c1=O [Compound 536, (R)-6-cyclopropyl-2-(3-cyclopropyl-4-(3,3,3-trifluoropropanoyl)piperazin-1-yl)-5-(2-methyl-1-oxo-1,2-dihydroisoquinolin-4-yl)nicotinonitrile] | < 500 | < 500 |
| N#Cc1cc(-c2ccc3ncsc3c2)c(C2CC2)nc1N1CCN(C(=O)CC(F)(F)F)[C@H](C2CC2)C1 [Compound 537, (R)-5-(benzo[d]thiazol-6-yl)-6-cyclopropyl-2-(3-cyclopropyl-4-(3,3,3-trifluoropropanoyl)piperazin-1-yl)nicotinonitrile] | < 500 | 500 to 1000 |
| N#Cc1cc(-c2cnc3[nH]ccc3c2)c(C2CC2)nc1N1CCN(C(=O)CC(F)(F)F)[C@H](C2CC2)C1 [Compound 539, (R)-6-cyclopropyl-2-(3-cyclopropyl-4-(3,3,3-trifluoropropanoyl)piperazin-1-yl)-5-(1H-pyrrolo[2,3-b]pyridin-5-yl)nicotinonitrile] | < 500 | 1000 to 10000 |
| C=C(C)c1cc(-c2cc(C#N)c(N3CCN(C(=O)C4CC4)[C@H](C4CC4)C3)nc2C2CC2)ccn1 [Compound 544, (R)-6-(4-(cyclopropanecarbonyl)-3-cyclopropylpiperazin-1-yl)-2-cyclopropyl-2′-(prop-1-en-2-yl)-3,4′-bipyridine-5-carbonitrile] | < 500 | 500 to 1000 |
| Cc1cc(-c2cc(C#N)c(N3CCN(C(=O)C4CC4)[C@H](C4CC4)C3)nc2C2CC2)c2ccncc2n1 [Compound 553, (R)-2-(4-(cyclopropanecarbonyl)-3-cyclopropylpiperazin-1-yl)-6-cyclopropyl-5-(2-methyl-1,7-naphthyridin-4-yl)nicotinonitrile] | < 500 | < 500 |
| N#Cc1cc(-c2cccc3cnc(Cl)cc23)c(C2CC2)nc1N1CCN(C(=O)C2CC2)[C@H](C2CC2)C1 [Compound 555, (R)-5-(3-chloroisoquinolin-5-yl)-2-(4-(cyclopropanecarbonyl)-3-cyclopropylpiperazin-1-yl)-6-cyclopropylnicotinonitrile] | < 500 | 500 to 1000 |
| Cc1cc(-c2cc(C#N)c(N3CCN(C(=O)C4CC4)[C@H](C4CC4)C3)nc2C2CC2)c2cccnc2n1 [Compound 557, (R)-2-(4-(cyclopropanecarbonyl)-3-cyclopropylpiperazin-1-yl)-6-cyclopropyl-5-(2-methyl-1,8-naphthyridin-4-yl)nicotinonitrile] | < 500 | 500 to 1000 |
| CCS(=O)(=O)N1CCN(c2cc(C#N)c(N3CCN(C(=O)CC(F)(F)F)[C@H](C4CC4)C3)nc2C2CC2)CC1 [Compound 559] | < 500 | 1000 to 10000 |
| N#Cc1cc(Nc2ccnc3ccccc23)c(C2CC2)nc1N1CCN(C(=O)CC(F)(F)F)[C@H](C2CC2)C1 [Compound 560, (R)-6-cyclopropyl-2-(3-cyclopropyl-4-(3,3,3-trifluoropropanoyl)piperazin-1-yl)-5-(quinolin-4-ylamino)nicotinonitrile] | < 500 | 1000 to 10000 |
| N#Cc1ccc2c(-c3cc(C#N)c(N4CCN(C(=O)C5CC5)[C@H](C5CC5)C4)nc3C3CC3)cccc2n1 [Compound 563, (R)-5-(5-cyano-6-(4-(cyclopropanecarbonyl)-3-cyclopropylpiperazin-1-yl)-2-cyclopropylpyridin-3-yl)quinoline-2-carbonitrile] | < 500 | < 500 |
| N#Cc1cc(-c2cccc3c(O)nccc23)c(C2CC2)nc1N1CCN(C(=O)C2CC2)[C@H](C2CC2)C1 [Compound 566, (R)-2-(4-(cyclopropanecarbonyl)-3-cyclopropylpiperazin-1-yl)-6-cyclopropyl-5-(1-hydroxyisoquinolin-5-yl)nicotinonitrile] | < 500 | 500 to 1000 |
| C=Cc1ccc2c(-c3cc(C#N)c(N4CCN(C(=O)CCO)[C@H](C5CC5)C4)nc3C3CC3)cccc2n1 [Compound 569, (R)-6-cyclopropyl-2-(3-cyclopropyl-4-(3-hydroxypropanoyl)piperazin-1-yl)-5-(2-vinylquinolin-5-yl)nicotinonitrile] | < 500 | < 500 |
| C=Cc1ccnc(Nc2cc(C#N)c(N3CCN(C(=O)CCCCC)[C@H](C4CC4)C3)nc2C2CC2)c1 [Compound 830, (R)-6-cyclopropyl-2-(3-cyclopropyl-4-hexanoylpiperazin-1-yl)-5-(4-vinylpyridin-2-ylamino)nicotinonitrile] | < 500 | – |

From patent publication US9856279B2 (AGIOS PHARMACEUTICALS, INC, priority 2011, dated 2018)
